Data from ChEMBL document CHEMBL3779793, “Squaraines bearing halogenated moieties as anticancer photosensitizers: Synthesis, characterization and biological evaluation” (Eur J Med Chem, 2016).
Activity calls are given as the source filed them. The rule behind the calls is not given here.

What was measured:
[1] = Induction of singlet oxygen generation in PBS at 5 uM measured within 5 to 10 mins by DPBF-based singlet oxygen trapping method in presence of light; format: physicochemical; settings: buffer
[2] = Dark cytotoxicity against human HT1080 cells at 2 uM after 24 to 72 hrs by WST-1 assay; format: cell-based; settings: ht-1080, 2 µM
[3] = Dark cytotoxicity against human HT1080 cells at 0.25 to 1 uM after 24 to 72 hrs by WST-1 assay; format: cell-based; settings: ht-1080, 1 µM
[4] = Drug uptake in human HT1080 cells at 1 uM by flow cytometric analysis; format: ADME, cell-based; settings: ht-1080, 1 µM, TDE = time-dependent effect
HT-1080 [5] = assay: Photocytotoxicity against human HT1080 cells at 1 uM preincubated for 24 hrs followed by red LED irradiation for 20 mins measured after 24 to 72 hrs by WST-1 assay; format: functional, cell-based
[6] = Drug uptake in mitochondria of human HT1080 cells at 1 uM incubated for 24 hrs by MitoTracker green dye based laser scanning confocal microscopy; format: ADME; settings: ht-1080, 24 h
HT-1080 [7] = assay: Induction of reactive oxygen species generation in human HT1080 cells at 1 uM preincubated for 24 hrs followed by red LED irradiation for 20 mins measured upto 15 mins by DCFH-DA probe based flow cytometry; format: functional, cell-based
HT-1080 [8] = assay: Induction of reactive oxygen species generation in human HT1080 cells assessed as increase in integrated median fluorescence intensity at 1 uM preincubated for 24 hrs followed by red LED irradiation for 20 mins measured after 1 min by DCFH-DA probe based flow cytometry relative to control; format: functional
HT-1080 [9] = assay: Induction of necrosis in human HT1080 cells at 1 uM preincubated for 24 hrs followed by red LED irradiation for 20 mins measured after 6 hrs by Annexin V Alexa Fluor and PI staining based flow cytometry; format: functional
[10] = Induction of necrosis in human HT1080 cells at 1 uM preincubated for 24 hrs measured after 6 hrs by Annexin V Alexa Fluor and PI staining based flow cytometry; format: cell-based; settings: ht-1080, 6 h
[11] = Induction of apoptosis in human HT1080 cells at 1 uM preincubated for 24 hrs measured after 6 hrs by Annexin V Alexa Fluor and PI staining based flow cytometry; format: cell-based; settings: ht-1080, 6 h
HT-1080 [12] = assay: Increase in release of mitochondrial cytochrome c release in cytosolic extracts of human HT1080 cells at 1 uM preincubated for 24 hrs followed by red LED irradiation for 20 mins measured after 0.5 hrs by ELISA method; format: functional, cell-based
HT-1080 [13] = assay: Increase in release of mitochondrial cytochrome c release in cytosolic extracts of human HT1080 cells at 1 uM preincubated for 24 hrs followed by red LED irradiation for 20 mins measured after 3 hrs by ELISA method; format: functional, cell-based
HT-1080 [14] = assay: Induction of DNA damage in human HT1080 cells at 1 uM preincubated for 24 hrs followed by red LED irradiation for 20 mins measured after 30 mins by ARP probe based flow cytometry; format: functional, cell-based
[15] = Upregulation of BAX mRNA expression in human HT1080 cells at 1 uM preincubated for 24 hrs followed by red LED irradiation for 20 mins measured after 0.5 to 24 hrs by RT-PCR analysis; format: functional, cell-based; settings: HT-1080
[16] = Upregulation of APAF1 mRNA expression in human HT1080 cells at 1 uM preincubated for 24 hrs followed by red LED irradiation for 20 mins measured after 0.5 to 24 hrs by RT-PCR analysis; format: functional, cell-based; settings: HT-1080
[17] = Downregulation of BCL-2 mRNA expression in human HT1080 cells at 1 uM preincubated for 24 hrs followed by red LED irradiation for 20 mins measured after 0.5 to 24 hrs by RT-PCR analysis; format: functional, cell-based; settings: HT-1080
[18] = Upregulation of TP-53 mRNA expression in human HT1080 cells at 1 uM preincubated for 24 hrs followed by red LED irradiation for 20 mins measured after 3 hrs by RT-PCR analysis; format: functional, cell-based; settings: HT-1080
[19] = Upregulation of GPX1 mRNA expression in human HT1080 cells at 1 uM preincubated for 24 hrs followed by red LED irradiation for 20 mins measured after 3 to 24 hrs by RT-PCR analysis; format: functional, cell-based; settings: HT-1080
[20] = Upregulation of GPX1 mRNA expression in human HT1080 cells at 1 uM preincubated for 24 hrs followed by red LED irradiation for 20 mins measured after 0.5 hrs by RT-PCR analysis relative to control; format: functional, cell-based; settings: HT-1080
[21] = Upregulation of NQO1 mRNA expression in human HT1080 cells at 1 uM preincubated for 24 hrs followed by red LED irradiation for 20 mins measured after 0.5 hrs by RT-PCR analysis relative to control; format: functional, cell-based; settings: HT-1080
[22] = Upregulation of NQO1 mRNA expression in human HT1080 cells at 1 uM preincubated for 24 hrs followed by red LED irradiation for 20 mins measured upto 24 hrs by RT-PCR analysis; format: functional, cell-based; settings: HT-1080
[23] = Upregulation of SOD2 mRNA expression in human HT1080 cells at 1 uM preincubated for 24 hrs followed by red LED irradiation for 20 mins measured after 0.5 hrs by RT-PCR analysis relative to control; format: functional, cell-based; settings: HT-1080
[24] = Dark cytotoxicity against human HT1080 cells at 2 to 10 uM after 24 to 72 hrs by WST-1 assay; format: cell-based; settings: ht-1080, 10 µM
[25] = Drug uptake in human HT1080 cells at 1 uM upto 6 hrs by flow cytometric analysis; format: ADME, cell-based; settings: ht-1080, 6 h
HT-1080 [26] = assay: Photocytotoxicity against human HT1080 cells at 1 uM preincubated for 24 hrs followed by red LED irradiation for 20 mins measured after 72 hrs by WST-1 assay; format: functional, cell-based
HT-1080 [27] = assay: Photocytotoxicity against human HT1080 cells at 1 uM preincubated for 24 hrs followed by red LED irradiation for 20 mins measured after 48 to 72 hrs by WST-1 assay; format: functional, cell-based
[28] = Drug uptake in human HT1080 cells at 1 uM upto 24 hrs by flow cytometric analysis; format: ADME, cell-based; settings: ht-1080, 24 h
[29] = Induction of singlet oxygen generation in PBS at 5 uM measured within 60 mins by DPBF-based singlet oxygen trapping method in presence of light; format: physicochemical; settings: buffer, 1 h

## CCCCN1/C(=C/C2=C([O-])C(=C\C3=[N+](CCCC)c4ccc(I)cc4C3(C)C)/C2=O)C(C)(C)c2cc(I)ccc21
[1]
  Activity: Active
[2]
  Activity: Non-toxic
[3]
  Activity: Non-toxic
[4]
  Drug uptake: tde
HT-1080 [5]
  Activity: Active
[6]
  Drug uptake: Active
HT-1080 [7]
  Activity: inactive
HT-1080 [8]
  fold change (FC): 32
HT-1080 [9]
  Activity: 83%
[10]
  Activity: Non-toxic
[11]
  Activity: Non-toxic
HT-1080 [12]
  Activity: Active
HT-1080 [13]
  Activity: inactive
HT-1080 [14]
  Activity: Active
[15]
  Activity: inactive
[16]
  Activity: inactive
[17]
  Activity: Active
[18]
  Activity: inactive
[19]
  Activity: inactive
[20]
  fold change (FC): 54.6
[21]
  fold change (FC): 5.56
[22]
  Activity: inactive
[23]
  fold change (FC): 5.21
[24]
  Activity: Dose-dependent effect

## CCCCN1/C(=C/C2=C([O-])C(=C\C3=[N+](CCCC)c4ccc(Br)cc4C3(C)C)/C2=O)C(C)(C)c2cc(Br)ccc21
[1]
  Activity: Active
[2]
  Activity: Non-toxic
[3]
  Activity: Non-toxic
[4]
  Drug uptake: tde
HT-1080 [5]
  Activity: Active
[6]
  Drug uptake: Active
HT-1080 [7]
  Activity: inactive
HT-1080 [8]
  fold change (FC): 15.32
HT-1080 [9]
  Activity: 81.9%
[10]
  Activity: Non-toxic
[11]
  Activity: Non-toxic
HT-1080 [12]
  Activity: Active
HT-1080 [13]
  Activity: inactive
HT-1080 [14]
  Activity: Active
[15]
  Activity: inactive
[16]
  Activity: inactive
[17]
  Activity: Active
[18]
  Activity: Active
[19]
  Activity: inactive
[20]
  fold change (FC): 34.6
[21]
  fold change (FC): 3.39
[22]
  Activity: inactive
[23]
  Activity: inactive
[24]
  Activity: Dose-dependent effect

## CC1(C)C(/C=C2/C(=O)C(/C=C3\Nc4ccc(Br)cc4C3(C)C)=C2O)=Nc2ccc(Br)cc21
[1]
  Activity: Active
[3]
  Activity: Non-toxic
[25]
  Drug uptake: Active
HT-1080 [5]
  Activity: inactive
[24]
  Activity: Dose-dependent effect

## CC1(C)C(/C=C2/C(=O)C(/C=C3\Nc4ccc(I)cc4C3(C)C)=C2O)=Nc2ccc(I)cc21
[1]
  Activity: Active
[3]
  Activity: Non-toxic
[25]
  Drug uptake: Active
HT-1080 [26]
  Activity: Active
[24]
  Activity: Dose-dependent effect

## CCN1/C(=C/C2=C([O-])C(=C\C3=[N+](CC)c4ccc(Br)cc4C3(C)C)/C2=O)C(C)(C)c2cc(Br)ccc21
[1]
  Activity: Active
[2]
  Activity: Non-toxic
[3]
  Activity: Non-toxic
[4]
  Drug uptake: tde
HT-1080 [27]
  Activity: Active
[24]
  Activity: Dose-dependent effect

## CC1(C)C(/C=C2/C(=O)C(/C=C3\Nc4ccccc4C3(C)C)=C2O)=Nc2ccccc21
[3]
  Activity: Non-toxic
[28]
  Drug uptake: Active
HT-1080 [5]
  Activity: inactive
[29]
  Activity: Active
[24]
  Activity: Dose-dependent effect

## CCN1/C(=C/C2=C([O-])C(=C\C3=[N+](CC)c4ccc(I)cc4C3(C)C)/C2=O)C(C)(C)c2cc(I)ccc21
[1]
  Activity: Active
[3]
  Activity: Non-toxic
[4]
  Drug uptake: tde
HT-1080 [5]
  Activity: inactive
[24]
  Activity: Dose-dependent effect
